The results in this text go back to US20040213742A1, “Monitoring marker” (priority 2002, published 2004).

The nature of this series: Intrauterine injection of pure N2O gas in anaesthetized pigs, N2O detected in expired breath. It counts as in vivo. Conditions: anaesthetized pig. Here is the method:
Pure nitrous oxide (N2O) gas was injected into the uterine cavities of 2 anaesthetized pigs with open uterine tubes and surgically ligated uterine tubes, respectively. Said N2O was detected every second in the expired breath by means of a conventional N2O detector.
The results are shown in FIGS. 1 and 2, where FIG. 1 is a concentration versus time graph and FIG. 2 is a cumulative concentration versus time graph, the upper curves representing closed uterine tubes and the lower curves representing open uterine tubes.
Furthermore, there was a clear difference between the two curves versus time which enables a monitoring of fallopian tube abnormalities as claimed by the present invention.

For `[N-]=[N+]=O` [nitrous oxide], the “time to maximum concentration in the exhaled air” value (open uterine tubes, intrauterine injection of pure N2O gas) is listed as “approximately 2 minutes”. In addition, for the setting “open uterine tubes, pure N2O gas injected into uterine cavity, detected every second in expired breath”, the “maximum concentration in the exhaled air” value is recorded as “approximately 40 ppm”. The “maximum concentration in the exhaled air, closed tubes relative to open tubes (higher)” value (surgically ligated (closed) uterine tubes versus open uterine tubes) is reported as “approximately 50%”.
